Key:
[1] = biological target: T1, vanilloid receptor (VR1), human VR1 gene (Homo sapiens, UniProt Q8NER1); experiment: FLIPR Ca2+ influx assay on CHO K1 cells transfected with the VR1 gene, capsaicin stimulus (Pharmacological method II); assay type: cell-based; conditions: for Ki / Ki (human) Capsaicin: human, Ki by Cheng-Prusoff, ne = no effect, no response observed; for inhibition at 5 µM: CHO-K1, compound 5 μM, read-out: Capsaicin: inhibition (in percent) @ 5 μM; for inhibition at 5 µM / inhibition at 0.1 µM: species column unclear (taken as human); for inhibition at 0.1 µM: CHO-K1, compound 0.1 μM, read-out: Capsaicin: inhibition (in percent) @ 0.1 μM
T1 construct: expressed in transfected cells; host or cells: CHO K1 cells (ECACC), stably transfected
T1 sequence (Q8NER1 whole entry): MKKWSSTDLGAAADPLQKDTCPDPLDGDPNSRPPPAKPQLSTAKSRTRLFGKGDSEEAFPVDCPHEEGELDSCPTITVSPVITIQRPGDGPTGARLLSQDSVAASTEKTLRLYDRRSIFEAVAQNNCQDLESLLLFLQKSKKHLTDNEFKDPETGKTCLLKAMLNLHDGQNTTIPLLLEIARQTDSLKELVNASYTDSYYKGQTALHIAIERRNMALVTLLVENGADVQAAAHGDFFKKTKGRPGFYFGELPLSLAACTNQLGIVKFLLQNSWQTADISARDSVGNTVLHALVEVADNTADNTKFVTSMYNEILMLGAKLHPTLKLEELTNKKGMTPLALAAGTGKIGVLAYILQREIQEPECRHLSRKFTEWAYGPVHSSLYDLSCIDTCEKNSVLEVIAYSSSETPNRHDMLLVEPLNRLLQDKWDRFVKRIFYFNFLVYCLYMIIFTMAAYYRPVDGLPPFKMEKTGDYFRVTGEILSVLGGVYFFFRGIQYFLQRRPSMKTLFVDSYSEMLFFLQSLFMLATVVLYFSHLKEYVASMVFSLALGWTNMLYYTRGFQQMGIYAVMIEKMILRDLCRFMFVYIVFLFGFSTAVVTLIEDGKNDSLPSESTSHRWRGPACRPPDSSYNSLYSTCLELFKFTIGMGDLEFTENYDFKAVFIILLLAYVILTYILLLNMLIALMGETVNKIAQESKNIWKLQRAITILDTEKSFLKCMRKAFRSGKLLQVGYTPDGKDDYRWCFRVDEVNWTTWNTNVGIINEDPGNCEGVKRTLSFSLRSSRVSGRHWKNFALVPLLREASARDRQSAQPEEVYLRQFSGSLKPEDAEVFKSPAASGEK
Protocol: In addition, compounds according to the invention of the general formulae I, Ia, Ib, Ic, and Id, may be preferred which in the FLIPR assay with CHO K1 cells, which have been transfected with the human VR1 gene, in a concentration of less than 2000 nM, preferably of less than 1000 nM, particularly preferably of less than 300 nM, very particularly preferably of less than 100 nM, still more preferably of less than 75 nM, further preferably of less than 50 nM and most preferably of less than 10 nM, bring about a 50 percent displacement of capsaicin, which is present in a concentration of 100 nM. In this FLIPR assay, the influx of Ca^2+ is quantified with the assistance of a Ca^2+-sensitive dye (type Fluo-4, Molecular Probes Europe BV, Leiden, Netherlands) in a Fluorescent Imaging Plate Reader (FLIPR, Molecular Devices, Sunnyvale, USA) as described below.
II. Functional Investigations on Vanilloid Receptor (VR1)
The agonistic or antagonistic action of the substances to be investigated on the vanilloid receptor (VR1) may also be determined with the following assay. According to this assay, the influx of Ca^2+ through the channel is quantified with the assistance of a Ca^2+-sensitive dye (type Fluo-4, Molecular Probes Europe BV, Leiden, Netherlands) in a Fluorescent Imaging Plate Reader (FLIPR, Molecular Devices, Sunnyvale, USA).
Chinese hamster ovary cells (CHO K1 cells, European Collection of Cell Cultures (ECACC), Great Britain) are stably transfected with the VR1 gene. For functional investigations, these cells are plated out onto poly-D-lysine-coated, black 96-hole plates with a clear base (BD Biosciences, Heidelberg, Germany) at a density of 25,000 cells/hole. The cells are incubated overnight at 37° C. and 5% CO2 in a culture medium (Ham's Nutrient Mixture F12, 10 vol. % FCS (foetal calf serum), 18 μg/mL L-proline). On the following day, the cells are incubated with Fluo-4 (Fluo-4 2 μM, Pluronic F127 0.01 vol. %, Molecular Probes in HBSS (Hank's buffered saline solution), Gibco Invitrogen GmbH, Karlsruhe, Germany) for 30 minutes at 37° C. The plates are then washed 3 times with HBSS buffer and, after a further 15 minutes' incubation at room temperature, used for Ca^2+ measurement in the FLIPR. Ca^2+-dependent fluorescence is here measured before and after the addition of the substances to be investigated (wavelength λex=488 nm, λem=540 nm).
Quantification proceeds by measuring the highest fluorescence intensity (FC, fluorescence counts) over time.
The FLIPR protocol consists of 2 additions of substance. The substances to be tested (10 μM) are firstly pipetted onto the cells and Ca^2+ influx is compared with the control (capsaicin 10 μM) (% activation relative to the Ca^2+ signal after addition of 10 μM of capsaicin). After 5 minutes' incubation, 100 nM of capsaicin are added and the influx of Ca^2+ is likewise determined.
The percentage inhibition in comparison with the maximum achievable inhibition with 10 μM capsaicin is calculated.
On the basis of the percentage displacement by different concentrations of the compounds to be tested of the general formula I, IC50 inhibition concentrations which bring about 50% displacement of capsaicin were calculated. Ki values for the test substances were obtained by conversion using the Cheng-Prusoff equation (Cheng, Prusoff; Biochem. Pharmacol. 22, 3099-3108, 1973).

VR1/TRPV1 receptor = VR1/TRPV1 receptor (Homo sapiens, UniProt Q8NER1); experiment: Inhibition of human VR1/TRPV1 following pH-stimulus; assay type: cell-based; conditions: for IC50 (Human) following pH-stimulus: ne = no effect, no response observed; for inhibition at 1 µM: compound 1 μM, read-out: IC50 (Human) following pH-stimulus: inhibition (in percent) @ 1 μM; for inhibition at 5 µM: read-out: IC50 (Human) following pH-stimulus: inhibition (in percent) @ 5 μM; for inhibition at 10 µM: compound 10 μM, read-out: IC50 (Human) following pH-stimulus: inhibition (in percent) @ 10 μM
Sequence of VR1/TRPV1 receptor (Q8NER1 whole entry): as above

| Ki [1] [nM] | IC50 (Human) following pH-stimulus (VR1/TRPV1 receptor) | inhibition at 0.1 µM [1] [%] | inhibition at 5 µM (VR1/TRPV1 receptor; compound 5 μM) [%] | Structure (SMILES) | also measured |
| --- | --- | --- | --- | --- | --- |
| 579 | Ne | – | – | CC(C(=O)NCc1ccc(C(C)(C)C)cc1)c1ccc2ocnc2c1 (stereo not shown) [Example 1, 2-benzooxazol-5-yl-N-(4-tert.-butyl-benzyl)-propionamide] | – |
| – | Ne | – | – | CSc1nc2ccc(C(C)C(=O)NCc3ccc(C(C)(C)C)nc3N3CCC(C)CC3)cc2s1 (stereo not shown) [Example 34, N-(6′-tert.-butyl-4-methyl-3,4,5,6-tetrahydro-2H-[1,2′]bipyridinyl-3′-ylmethyl)-2-(2-methylsulfanyl-benzothiazol-6-yl)-propionamide] | inhibition at 5 µM [1]: 38% |
| – | – | 0 | 21 | CC1CCN(c2nc(C(F)(F)F)ccc2CNC(=O)C(C)c2ccc3nc(NC(=O)OC(C)(C)C)sc3c2)CC1 (stereo not shown) [Example 40, tert.-butyl 6-(1-((2-(4-methylpiperidin-1-yl)-6-(trifluoromethyl)pyridin-3-yl)methylamino)-1-oxopropan-2-yl)benzo[d]thiazol-2-ylcarbamate] | inhibition at 5 µM [1]: 34%; inhibition at 1 µM (VR1/TRPV1 receptor): 0%; inhibition at 10 µM (VR1/TRPV1 receptor): 37% |
| – | – | 0 | 25 | CC(C(=O)NCc1ccc(C(C)(C)C)cc1)c1ccc2nc(NC(=O)OC(C)(C)C)sc2c1 (stereo not shown) [Example 50, tert.-butyl 6-(1-(4-tert.-butylbenzylamino)-1-oxopropan-2-yl)benzo[d]thiazol-2-ylcarbamate] | inhibition at 5 µM [1]: 10%; inhibition at 1 µM (VR1/TRPV1 receptor): 10%; inhibition at 10 µM (VR1/TRPV1 receptor): 53% |
| – | – | – | 27 | CC1CCN(c2nc(C(C)(C)C)ccc2CNC(=O)C(C)c2ccc3nc(NC(=O)OC(C)(C)C)sc3c2)CC1 (stereo not shown) [Example 55, tert-butyl 6-(1-((6-tert-butyl-2-(4-methylpiperidin-1-yl)pyridin-3-yl)methylamino)-1-oxopropan-2-yl)benzo[d]thiazol-2-ylcarbamate] | inhibition at 5 µM [1]: 12%; inhibition at 1 µM (VR1/TRPV1 receptor): 5% |
| 18.7 | – | – | 2 | CC1CCN(c2nc(C(C)(C)C)ccc2CNC(=O)C(C)c2ccc3nc(N)sc3c2)CC1 (stereo not shown) [Example 56, 2-(2-aminobenzo[d]thiazol-6-yl)-N-((6-tert-butyl-2-(4-methylpiperidin-1-yl)pyridin-3-yl)methyl)propanamide] | inhibition at 10 µM (VR1/TRPV1 receptor): 12% |
| 32.8 | – | – | 3 | CC(C(=O)NCc1ccc(C(C)(C)C)cc1)c1ccc2nc(NS(C)(=O)=O)sc2c1 (stereo not shown) [Example 57, N-(4-tert-butylbenzyl)-2-(2-(methylsulfonamid)benzo[d]thiazol-6-yl)propanamide] | inhibition at 10 µM (VR1/TRPV1 receptor): 32% |

The next lines start with the compound.

| Structure (SMILES) | Ki [1] [nM] | IC50 (Human) following pH-stimulus (VR1/TRPV1 receptor) | inhibition at 0.1 µM [1] [%] | inhibition at 5 µM (VR1/TRPV1 receptor; compound 5 μM) [%] | also measured |
| --- | --- | --- | --- | --- | --- |
| COc1cc(C(C)C(=O)NCc2ccc(C(C)(C)C)cc2)cc2ncoc12 (stereo not shown) [Example 7, N-(4-tert.-butyl-benzyl)-2-(7-methoxy-benzooxazolyl-5-yl)-propionamide] | 2170 | Ne | – | – | – |
| CC(C(=O)NCc1ccc(C(C)(C)C)cc1)c1ccc2c(c1)OCCO2 (stereo not shown) [Example 9, N-(4-tert.-butyl-benzyl)-2-(2,3-dihydro-benzo[1,4]dioxin-6-yl)-propionamide] | 1080 | Ne | – | – | – |
| CC(C(=O)NCc1ccc(C(C)(C)C)cc1)c1ccc2nccnc2c1 (stereo not shown) [Example 11, N-(4-tert.-butyl-benzyl)-2-quinoxalin-6-yl-propionamide] | – | – | – | – | Ki (human) Capsaicin [1]: ne |
| CC(C(=O)NCc1ccc(C(C)(C)C)cc1)c1ccc2[nH]cnc2c1 (stereo not shown) [Example 14, 2-(1H-benzoimidazol-5-yl)-N-(4-tert.-butyl-benzyl)-propionamide] | – | – | – | – | Ki (human) Capsaicin [1]: ne |
| CC(C(=O)NCc1ccc(C(C)(C)C)cc1)c1ccc2c(c1)OCCN2 (stereo not shown) [Example 20, N-(4-tert.-butylbenzyl)-2-(3,4-dihydro-2H-benzo[b][1,4]oxazin-7-yl)propionamide] | – | Ne | – | – | inhibition at 5 µM [1]: 9% |
| CC1CCN(c2nc(C(F)(F)F)ccc2CNC(=O)C(C)c2ccc3nc(N)sc3c2)CC1 (stereo not shown) [Example 38, 2-(2-aminobenzo[d]thiazol-6-yl)-N-((2-(4-methylpiperidin-1-yl)-6-(trifluoromethyl)pyridin-3-yl)methyl)propanamide] | 28.4 | Ne | – | – | – |
| CC1CCN(c2nc(C(F)(F)F)ccc2CNC(=O)C(C)c2ccc3nc(NS(C)(=O)=O)sc3c2)CC1 (stereo not shown) [Example 39, N-((2-(4-methylpiperidin-1-yl)-6-(trifluoromethyl)pyridin-3-yl)methyl)-2-(2-(methylsulfonamido)benzo[d]thiazol-6-yl)propanamide] | – | Ne | 0 | – | – |
| CC(=O)Nc1nc2ccc(C(C)C(=O)NCc3ccc(C(F)(F)F)nc3N3CCC(C)CC3)cc2s1 (stereo not shown) [Example 41, 2-(2-acetamidobenzo[d]thiazol-6-yl)-N-((2-(4-methylpiperidin-1-yl)-6-(trifluoromethyl)pyridin-3-yl)methyl)propanamide] | – | Ne | 5 | – | – |
| CC(C(=O)NCc1ccc(C(C)(C)C)cc1)c1ccc2nc(N)sc2c1 (stereo not shown) [Example 51, 2-(2-aminobenzo[d]thiazol-6-yl)-N-(4-tert.-butylbenzyl)propanamide] | – | – | 3 | 39 | inhibition at 0.1 µM (VR1/TRPV1 receptor; compound 0.1 μM, read-out: IC50 (Human) following pH-stimulus: inhibition (in percent) @ 0.1 μM): 10%; IC50 (Human) following pH-stimulus: inhibition (in percent) @ 5 μM (VR1/TRPV1 receptor; compound 5 μM, 5 µM): 27% @ 5 |
| CC1CCN(c2nc(C(F)(F)F)ccc2CNC(=O)C(C)c2ccc3nc(N)sc3c2)CC1 (stereo not shown) [Example 52, 2-(2-aminobenzo[d]thiazol-6-yl)-N-((2-(4-methylpiperidin-1-yl)-6-(trifluoromethyl)pyridin-3-yl)methyl)propanamide] | – | Ne | 5 | – | – |

Source: patent publication US8084484B2, “Vanilloid receptor ligands, pharmaceutical compositions containing them, process for making them, and use thereof for treating pain and other conditions” (Gruenenthal GmbH, priority 2007, dated 2011)
